Measured values from patent publication US8785439B2, “2,5,7-substituted oxazolopyrimidine derivatives” (Sanofi, priority 2010, dated 2014).

Target: T1, human Edg-1 receptor (Homo sapiens, UniProt P21453)
T1 construct: FLAG (N); expressed in transfected cells; membrane preparation
Experiment: GTP-γ-S assay using human Edg-1 receptors (SPA, CHO Flp-In cell membrane preparation)
Format: biochemical
Settings: test compound at 10 μM, high control 10 μM S1P regarded as 100% activation, background-corrected, triplicate; for activation at 10 µM: read-out: % Activation (Edg-1 receptor activation in percent of the activation by 10 μM S1P)
Procedure, shortened: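 Membranes from CHO Flp-In cells stably overexpressing N-terminally FLAG-tagged human Edg-1 were used in a scintillation-proximity GTP-γ-S binding assay to measure receptor activation by compounds.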

T1 sequence (P21453 whole entry): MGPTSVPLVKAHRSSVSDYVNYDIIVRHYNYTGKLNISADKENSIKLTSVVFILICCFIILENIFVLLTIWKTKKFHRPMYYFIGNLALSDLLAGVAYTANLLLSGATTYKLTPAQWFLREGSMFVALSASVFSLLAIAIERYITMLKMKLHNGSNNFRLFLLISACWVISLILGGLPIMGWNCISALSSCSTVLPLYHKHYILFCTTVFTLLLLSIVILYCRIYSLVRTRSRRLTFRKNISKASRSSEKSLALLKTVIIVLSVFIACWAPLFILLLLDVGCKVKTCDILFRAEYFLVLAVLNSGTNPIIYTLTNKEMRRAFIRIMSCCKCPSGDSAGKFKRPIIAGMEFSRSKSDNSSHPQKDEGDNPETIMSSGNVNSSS

Structure (SMILES) | activation at 10 µM | % Activation (Edg-1 receptor activation in percent of the activation by 10 μM S1P)
CCCOc1nc(OC2COC2)nc2oc(-c3cccc(C)c3)nc12 [Example 38, 5-(oxetan-3-yloxy)-7-propoxy-2-(3-methyl-phenyl)-oxazolo[5,4-d]pyrimidine] | 70% | –
CCOc1nc(Oc2ccccc2F)nc2oc(-c3cc(C)c(OC)c(C)c3)nc12 [Example 46, 7-ethoxy-5-(2-fluoro-phenoxy)-2-(4-methoxy-3,5-dimethyl-phenyl)-oxazolo[5,4-d]pyrimidine] | 102% | –
CCCOc1nc(OC2CCCCC2)nc2oc(-c3cccc(C)c3)nc12 [Example 2, 5-Cyclohexyloxy-7-propoxy-2-(3-methyl-phenyl)-oxazolo[5,4-d]pyrimidine] | 90% | –
CCOc1nc(Oc2cc(C)nn2C)nc2oc(-c3cc(F)ccc3Cl)nc12 [Example 10, 2-(2-chloro-5-fluoro-phenyl)-5-(2,5-dimethyl-2H-pyrazol-3-yloxy)-7-ethoxy-oxazolo[5,4-d]pyrimidine] | 107% | –
CCCOc1nc(Oc2ccc(OC(F)(F)F)c(Cl)c2)nc2oc(-c3cccc(C)c3)nc12 [Example 52, 5-(3-chloro-4-trifluoromethoxy-phenoxy)-7-propoxy-2-(3-methyl-phenyl)-oxazolo[5,4-d]pyrimidine] | 51% | –
CCCOc1nc(Oc2ccc(C)nn2)nc2oc(-c3cccc(C)c3)nc12 [Example 19, 5-(6-methyl-pyridazin-3-yloxy)-7-propoxy-2-(3-methyl-phenyl)-oxazolo[5,4-d]pyrimidine] | 62% | –
CCOc1nc(OCC2COC(C)(C)O2)nc2oc(-c3cccc(C)c3)nc12 (stereo not drawn) [Example 37, 5-(2,2-dimethyl-[1,3]dioxolan-4-ylmethoxy)-7-ethoxy-2-(3-methyl-phenyl)-oxazolo[5,4-d]pyrimidine] | 86% | –
CCCOc1nc(Oc2ccccc2F)nc2oc(-c3cccc(O)c3)nc12 [Example 42, 3-[5-(2-fluoro-phenoxy)-7-propoxy-oxazolo[5,4-d]pyrimidin-2-yl]-phenol] | 130% | –
CCCOc1nc(Oc2cc(F)cc(F)c2Cl)nc2oc(-c3cccc(C)c3)nc12 [Example 100, 5-(2-chloro-3,5-difluoro-phenoxy)-7-propoxy-2-(3-methyl-phenyl)-oxazolo[5,4-d]pyrimidine] | 108% | –
CCCOc1nc(OC2CCC(C)CC2)nc2oc(-c3cc(F)ccc3Cl)nc12 (stereo not drawn) [Example 85, 2-(2-chloro-5-fluoro-phenyl)-5-(4-methyl-cyclohexyloxy)-7-propoxy-oxazolo[5,4-d]pyrimidine] | 67% | –
CCCOc1nc(Oc2ccc(=O)n(C)n2)nc2oc(-c3cc(F)ccc3Cl)nc12 [Example 114, 6-[2-(2-chloro-5-fluoro-phenyl)-7-propoxy-oxazolo[5,4-d]pyrimidin-5-yloxy]-2-methyl-2H-oyridazin-3-one] | – | 96%
CCCOc1nc(NC2CCOCC2)nc2oc(-c3cccc(C)c3)nc12 [Example 3, (7-Propoxy-2-(3-methyl-phenyl)-oxazolo[5,4-d]pyrimidin-5-yl)-(tetrahydro-pyran-4-yl)-amine] | 74% | –
CCCOc1nc(Oc2cccc(OC)c2)nc2oc(-c3cccc(C)c3)nc12 [Example 118, 5-(3-methoxy-phenoxy)-7-propoxy-2-(3-methyl-phenyl)-oxazolo[5,4-d]pyrimidine] | 98% | –
CCCOc1nc(Oc2cccc(OCC)c2)nc2oc(-c3cccc(C)c3)nc12 [Example 93, 5-(3-ethoxy-phenoxy)-7-propoxy-2-(3-methyl-phenyl)-oxazolo[5,4-d]pyrimidine] | 60% | –
CCCOc1nc(Oc2cccc(SC(F)(F)F)c2)nc2oc(-c3cccc(C)c3)nc12 [Example 116, 7-propoxy-2-(3-methyl-phenyl)-5-(3-trifluoromethylsulfanyl-phenoxy)-oxazolo[5,4-d]pyrimidine] | 70% | –
Fc1cncc(Oc2nc(OCC3CC3)c3nc(-c4ccc(Cl)c(Cl)c4)oc3n2)c1 [Example 108, 7-cyclopropylmethoxy-2-(3,4-dichloro-phenyl)-5-(5-fluoro-pyridin-3-yloxy)-oxazolo[5,4-d]pyrimidine] | 98% | –

Now from value to compound:

activation at 10 µM | % Activation (Edg-1 receptor activation in percent of the activation by 10 μM S1P) | Structure (SMILES)
97% | – | CCCOc1nc(Oc2cc(F)cc(Cl)c2)nc2oc(-c3cccc(C)c3)nc12 [Example 138, 5-(3-chloro-5-fluoro-phenoxy)-7-propoxy-2-(3-methyl-phenyl)-oxazolo[5,4-d]pyrimidine]
91% | – | CCCOc1nc(Oc2ccc(OC)c(OC)c2)nc2oc(-c3cccc(C)c3)nc12 [Example 136, 5-(3,4-dimethoxy-phenoxy)-7-propoxy-2-(3-methyl-phenyl)-oxazolo[5,4-d]pyrimidine]
93% | – | CCCOc1nc(Oc2cccc(C#N)c2)nc2oc(-c3cccc(C)c3)nc12 [Example 87, 3-(7-propoxy-2-(3-methyl-phenyL)-oxazolo[5,4-d]pyrimidin-5-yloxy)-benzonitrile]
116% | – | CCOc1nc(Oc2ccccc2F)nc2oc(-c3ccc[n+]([O-])c3)nc12 [Example 7, 7-Ethoxy-5-(2-fluoro-phenoxy)-2-(1-oxy-pyridin-3-yl)-oxazolo[5,4-d]pyrimidine]
129% | – | CCCOc1nc(Oc2ccccc2F)nc2oc(-c3cccnc3)nc12 [Example 107, 5-(2-fluoro-phenoxy)-7-propoxy-2-pyridin-3-yl-oxazolo[5,4-d]pyrimidine]
113% | – | CCCOc1nc(Oc2cccc(Cl)c2)nc2oc(-c3cccc(C)c3)nc12 [Example 121, 5-(3-chloro-phenoxy)-7-propoxy-2-(3-methyl-phenyl)-oxazolo[5,4-d]pyrimidine]
105% | – | CCCOc1nc(Oc2ccc(C)c(F)c2)nc2oc(-c3cccc(C)c3)nc12 [Example 54, 5-(3-fluoro-4-methyl-phenoxy)-7-propoxy-2-(3-methyl-phenyl)-oxazolo[5,4-d]pyrimidine]
60% | – | CCCOc1nc(Oc2cccc3c2OC(C)(C)C3)nc2oc(-c3cc(F)ccc3Cl)nc12 [Example 84, 2-(2-chloro-5-fluoro-phenyl)-5-(2,2-dimethyl-2,3-dihydro-benzofuran-7-yloxy)-7-propoxy-oxazolo[5,4-d]pyrimidine]
112% | – | CCCOc1nc(Oc2ccccc2C(C)C)nc2oc(-c3cccc(C)c3)nc12 [Example 124, 5-(2-isopropyl-phenoxy)-7-propoxy-2-(3-methyl-phenyl)-oxazolo[5,4-d]pyrimidine]
55% | – | CCOc1nc(Oc2cccc(S(=O)(=O)N(C)C)c2)nc2oc(-c3cccc(C)c3)nc12 [Example 17, 3-(7-ethoxy-2-(3-methyl-phenyl)-oxazolo[5,4-d]pyrimidin-5-yloxy)-N,N-dimethyl-benzenesulfonamide]
105% | – | CCCOc1nc(Oc2ccccc2C#N)nc2oc(-c3cccc(C)c3)nc12 [Example 128, 2-(7-propoxy-2-(3-methyl-phenyl)-oxazolo[5,4-d]pyrimidin-5-yloxy)-benzonitrile]
88% | – | CCCOc1nc(Oc2ccccc2)nc2oc(-c3ccc(Cl)c(Cl)c3)nc12 [Example 105, 2-(3,4-dichloro-phenyl)-5-phenoxy-7-propoxy-oxazolo[5,4-d]pyrimidine]
47% | – | Cc1cccc(-c2nc3c(OCC4CC4)nc(OC4COC4)nc3o2)c1 [Example 39, 7-cyclopropylmethoxy-5-(oxetan-3-yloxy)-2-(3-methyl-phenyl)-oxazolo[5,4-d]pyrimidine]
70% | – | CCCOc1nc(Oc2ccccc2)nc2oc(-c3cc(F)ccc3Cl)nc12 [Example 78, 2-(2-chloro-5-fluoro-phenyl)-5-phenoxy-7-propoxy-oxazolo[5,4-d]pyrimidine]
94% | – | CCCOc1nc(Oc2cccnc2)nc2oc(-c3ccc(Cl)c(Cl)c3)nc12 [Example 44, 2-(3,4-dichloro-phenyl)-7-propoxy-5-(pyridin-3-yloxy)-oxazolo[5,4-d]pyrimidine]
86% | – | CCCOc1nc(Oc2ccc(Cl)cc2C)nc2oc(-c3cccc(C)c3)nc12 [Example 88, 5-(4-chloro-2-methyl-phenoxy)-7-propoxy-2-(3-methyl-phenyl)-oxazolo[5,4-d]pyrimidine]
77% | – | CCCOc1nc(OC2CCC(C)CC2)nc2oc(-c3cccc(C)c3)nc12 (stereo not drawn) [Example 70, 5-(4-methyl-cyclohexyloxy)-7-propoxy-2-(3-methyl-phenyl)-oxazolo[5,4-d]pyrimidine]
